Data published in patent publication US20060110376A1, “MDA-7 and free radicals in the treatment of cancer” (priority 2002, published 2006).
Peptide text beside a SMILES is read from it. * marks the point of attachment. Cbz = O=C(OCc1ccccc1)*; CH2F = FC*

Columns and labels:
[1] = test system: SKOV3 cells; assay: MTT assay with 4-HPR; type: cell-based, human; details: 500 nM 4-HPR; MTT 96 h
Protocol: FIG. 35. Effect of transduction by Ad.mda-7 on the growth of the ovarian cancer cell line SKOV3 in the presence or absence of N-(4-hydroxyphenyl) retinamide (4-HPR).
SKOV3 cells (ATCC, Manassas Va.) were plated at 10,000 per well in 24 well plates. 24 h after plating cells were infected with either control virus or Ad.mda-7 virus at increasing multiplicities of viral infection. 24 h after infection, cells were treated with 500 nM 4-HPR. 96 h after 4-HPR addition, cell numbers were determined using MTT assays as described above.

[2] = test system: prostate cancer cell lines (DU-145, PC-3, LNCaP); assay: Mitochondrial ΔΨm (DiOC6(3)) and ROS time course; type: cell-based, human; details: CsA, BA pretreatment; 18 h (LNCaP), 24 h (DU-145, PC-3)
Protocol: (§1) FIG. 33A-C. […] Prostate cancer and normal immortalized P69 cells were pretreated with inhibitors of MPT CsA (100 nM) or BA (50 μM), with the enhancer of MPT PK11195 (50 μM) or with the pan-caspase inhibitor z-VAD.fmk (50 μM) for 2 h following infection with Ad.vec or Ad.mda-7. Cellular viability was assessed by MTT assay 48 h after infection (Panel A). Mitochondrial membrane potential (DiOC6(3) staining, Panel B) and apoptotic changes (Annexin V staining, Panel C) were assessed 18 h (LNCaP cells) and 24 h (DU-145, PC-3 and P69 cells) after infection.

[3] = test system: prostate carcinoma cell lines (DU-145, PC-3, LNCaP); assay: MTT viability assay; type: cell-based, human
Protocol: (§2) Cells were seeded in 96-well plates, pretreated with NAC (5 mM) or Tiron (1 mM) for 2 h and infected with Ad.mda-7. Forty eight hours later, viability was assessed by MTT assay. […] Cells were seeded in 96-well plates, infected with Ad.mda-7 and treated with As2O3 (10 μM) or NSC656240 (400 nM). Forty eight h later, viability was assessed by MTT assay. Panel C. […] After treatment, cells were stained using DCF-DA and analyzed using flow cytometry. […] After treatment, cells were washed and stained with Annexin V-FITC conjugate. Late apoptotic and necrotic cells were excluded using PI staining. Results are the mean of three independent experiments performed with triplicate samples±S.E.
[…] Cellular viability was assessed by MTT assay 48 h after infection (Panel A). Mitochondrial membrane potential (DiOC6(3) staining, Panel B) and apoptotic changes (Annexin V staining, Panel C) were assessed 18 h (LNCaP cells) and 24 h (DU-145, PC-3 and P69 cells) after infection.
MTT Viability Assays. This method was performed as described (Lebedeva et al., 2000, Cancer Research 60:6052-6060). […] At the indicated time points, medium was removed, and fresh medium containing 0.5 mg/ml MTT was added to each well. The cells were incubated at 37° C. for 4 h and then an equal volume of solubilization solution (0.01N HCl in 10% SDS) was added to each well and mixed thoroughly. The optical density from the plates was read on a BioRad Microplate Reader Model 550 at 595 nm.

[4] = test system: pancreatic cancer cell lines; assay: Western blotting of K-ras and MDA-7 protein; type: cell-based, human
Text: FIG. 43. MDA-7 expression in pancreatic cancer cell lines in the presence or absence of Ad.mda-7, Ad.K-rasAS, or NSC656243. The presence of MDA-7 in mutant K-ras cell lines requires expression of both mda-7 and the antisense K-ras construct, and is potentiated by NSC656243.
FIG. 45. The MDA-7 expression observed in the PANC-1 or BxPC-3 cell lines following administration of Ad.mda-7 in combination with either NSC656240 or Ar2O3 is abrogated by NAC administration.
Preparation of Cell Extracts and Western Blotting Analysis. Cells were washed 2× with cold PBS and lysed on ice for 30 min in […] of cold RIPA buffer [50 mM Tris-HCl (pH 8.0), 150 mM NaCl, 0.1% SDS, 1% NP40, and 0.5% sodium deoxycholate] with freshly added 0.1 mg/ml phenylmethylsulfonyl fluoride, 1 mM sodium orthovanadate, and 1 mg/ml aprotinin. After cell debris were removed by centrifugation at 14,000 g for 10 min at 4° C., protein concentrations were determined using the Bio-Rad protein assay system (Bio-Rad Laboratories, Richmond, Calif.). Aliquots of cell extracts containing […] of total protein were resolved in 12% SDS-PAGE and transferred to Immobilon-P PVDF membranes (Millipore Corp., Bedford, Mass.). Filters were blocked for 1 h at room temperature in Blotto A [5% nonfat milk powder in TBS-T: 10 mM Tris-HCl (pH 8.0), 150 mM NaCl, 0.05% Tween 20], and then incubated for 1 h at room temperature in Blotto A containing a 1:1000 dilution of rabbit anti MDA-7 polyclonal antibody. After washing in TBS-T buffer (3×5 min, RT), filters were incubated for 1 h at room temperature in Blotto A containing a 1:10,000 dilution of peroxidase conjugated anti-rabbit secondary antibody (Amersham, Arlington Heights, Ill.). After washing in TBS-T, ECL was performed according to the manufacturer's recommendation.

[5] = test system: pancreatic carcinoma cells; assay: ROS production (flow cytometry); type: cell-based, human
Protocol: FIG. 46. Combined treatment by NSC656240 or Ar2O3 and Ad.mda-7 causes overproduction of ROS in pancreatic carcinoma cells.
Assessment of ROS Production. To determine ROS production, cells were stained with 2.5 μM HE or 5 μM DCFH-DA in PBS for 30 min at 37° C. in the dark. Immediately after staining, cells were analyzed by flow cytometry (FACSscan, Becton-Dickinson, Mountain View, Calif.), and data were analyzed using CellQuest software, version 3.1 (Becton Dickinson). For inhibition experiments, NAC (Sigma) was added 2 h prior to infection with Ad.mda-7. In all cases, cells were gated to exclude cell debris.

[6] = test system: pancreatic carcinoma cells; assay: Apoptosis (annexin V exposure, hypodiploid A0 cells); type: cell-based, human; details: annexin V exposure and A0 population
Text: FIG. 39. Combined treatment of pancreatic carcinoma cells by NSC656240 and Ad.mda-7 increases levels of annexin V in pancreatic cancer cells irrespective of K-ras status.
FIG. 40. NAC administration prevents the apoptosis of pancreatic cancer cells induced by treatment of pancreatic carcinoma cells by NSC656240 or Ar2O3 and Ad.mda-7.
FIG. 41. Combined treatment of pancreatic carcinoma cells by NSC656240 or Ar2O3 and Ad.mda-7 causes apoptosis irrespective of K-ras status.
Annexin V Binding Assays. Cells were trypsinized, washed once with complete medium and stained with FITC-labeled Annexin-V (kit from Oncogene Research Products, Boston, Mass.) according to the manufacturer's instructions. Flow cytometry was performed immediately after staining.
Cell Cycle Analysis. Cells were trypsinized, washed 2× with PBS and fixed in 70% ethanol overnight at −20° C. Then cells were washed 2 times with PBS, and aliquots of 1×10^6 cells were resuspended in 1 ml of PBS containing 1 mg/ml of RNase A and 0.5 mg/ml of propidium iodide. After 30 min incubation, cells were analyzed by flow cytometry using a FACScan flow cytometer (Becton Dickinson, San Jose, Calif.).

[7] = test system: pancreatic cancer cells stably transformed to express MDA-7; assay: Apoptosis and cell death in cells stably expressing MDA-7; type: cell-based, human
Text: FIG. 49. Induction of apoptosis in pancreatic cancer cell lines (PANC-1) stably expressing MDA-7.
FIG. 50. Induction of apoptosis in pancreatic cancer cell lines (Mia PaCa-2) stably expressing MDA-7.
FIG. 51. Induction of apoptosis in pancreatic cancer cell lines (FM516 or BxPC-3) stably expressing MDA-7.

[8] = test system: normal cells (immortalized human astrocytes or melanocytes); assay: MTT viability assay; type: cell-based; details: Ad.mda-7 100 p.f.u./cell
Protocol: (§3) MTT Viability Assays. Cell viability was assessed by MTT assays as described (Lebedeva et al., 2000, Cancer Research 60:6052-6060). Briefly, cells were seeded in 96-well tissue culture plates (1.5×10^3 cells per well) and treated with various agents. At the indicated times, medium was removed, and fresh medium containing 0.5 mg/ml MTT was added to each well. The cells were incubated at 37° C. for 4 h and then an equal volume of solubilization solution (0.01N HCl in 10% SDS) was added to each well and mixed thoroughly. The optical density from the plates was read on a BioRad Microplate Reader Model 550 at 595 nm.

[9] = test system: prostate carcinoma cells; assay: ROS production (DCF fluorescence, flow cytometry); type: cell-based, human; details: treated with NSC656240 or As2O3
Protocol: as §2

[10] = test system: pancreatic carcinoma cells; assay: MTT viability assay; type: cell-based, human; details: Ad.mda-7 100 p.f.u./cell
Protocol: as §3

[11] = test system: RT2 cells; assay: MTT assay with kinase inhibitors; type: cell-based, rat
Protocol: Data are the means±SEM of 3 experiments # p<0.05 less than control treated cells, * p<0.05 less than corresponding value in cells not infected with Ad-mda-7. Panel C. […] Data are the means±SEM of 3 separate experiments. […] Data are the means±SEM of 3 separate experiments. […] Cells were incubated with vehicle or SP600125 (10 μM) 30 min prior to irradiation and growth determined via MTT assay 4 days after irradiation (±SEM, n=4).
The MTT test is based on the enzymatic reduction of the tetrazolium salt MTT in living, metabolically active cells. […] Twenty-four hours after infection/protein treatment, cells were treated with kinase inhibitor drugs and then irradiated. […] The plates were read on a Dynatech MR600 Microplate Reader at 540 nm. All data were normalized relative to the control, non-treated unirradiated cells of the corresponding cell type.

[12] = test system: normal immortal P69 prostate epithelial cells; assay: MTT viability assay; type: cell-based, human; details: PK11195 50 μM
Protocol: as §2, §1
MTT Viability Assays. […] The optical density from the plates was read on a BioRad Microplate Reader Model 550 at 595 nm.

Structure (SMILES): CC1=C(/C=C/C(C)=C/C=C/C(C)=C/C(=O)Nc2ccc(O)cc2)C(C)(C)CCC1 [4-HPR, N-(4-hydroxyphenyl) retinamide]
- effect of 4-HPR on toxic effects of MDA-7 expression [1]: potentiated the toxic effects of MDA-7 expression

Structure (SMILES): CO[C@H](C/C=C\C=C\CC/C=C/C[C@H](C)/C=C/C(=C\C(=O)O)CC(=O)O)/C(C)=C\C=C(/C)C(=O)O [BA, bongkrekic acid]
- effect on Ad.mda-7-induced decline in ΔΨm [2]: abrogated the decline in ΔΨm
- effect of MPT inhibitor on cell death of Ad.mda-7-infected cells ([3]; CsA (200 nM), BA (50 μM) pretreatment 2 h): prevented cell death

Structure (SMILES): O=C1c2ccsc2C(=O)c2sc(CO)cc21 [NSC656240]
- K-ras protein expression ([4]; alone or in combination with Ad.mda-7): does not down-regulate K-ras protein expression
- MDA-7 protein expression and secretion, combined treatment with Ad.mda-7 ([4]; wt and mutated K-ras pancreatic cancer cell lines): leads to MDA-7 protein expression and secretion
- ROS production, combined treatment with Ad.mda-7 [5]: Caused ROS overproduction
- apoptosis, combination treatment with Ad.mda-7 [6]: caused apoptosis in pancreatic carcinoma cells independently of their K-ras status
- apoptosis and cell death [7]: caused apoptosis and cell death
- growth, combinational treatment with Ad.mda-7 [8]: does not affect growth of normal cells
- ROS levels [9]: ROS levels increased proportionally
- cell death, combinational treatment with Ad.mda-7 [10]: caused death of these cells irrespective of their K-ras status
- effect of ROS-producing agent on cell death of Ad.mda-7-infected cells ([3]; As2O3 10 μM, NSC656240 400 nM, 48 h): potentiated cell death

Structure (SMILES): COc1cccc(-c2cc(=O)c3ccccc3o2)c1N [PD98059]
- effect of combined MEK1/2 and PI3K inhibition on proliferation of Ad.mda-7 infected cells ([11]; 10 μm PD98059 + 5 μm LY294002): significant additional reduction in proliferation
- effect of single kinase inhibitor on anti-proliferative effects of Ad.mda-7 ([11]; 10 μm PD98059 or 5 μm LY294002): neither MEK1/2 nor PI3K enhanced the anti-proliferative effects

Structure (SMILES): CCC(C)N(C)C(=O)c1cc2ccccc2c(-c2ccccc2Cl)n1 (stereo not drawn) [PK11195]
- effect of PK11195 on MPT, annexin V staining and killing [12]: without inducing any of these changes in P69 cells
- effect of PK11195 on Ad.mda-7-induced killing ([3]; PK11195 50 μM): enhanced Ad.mda-7-induced killing

Structure (SMILES): O=S(=O)(O)c1cc(O)c(O)c(S(=O)(=O)O)c1 [Tiron]
- effect of antioxidant on cell death promoting activity of Ad.mda-7 ([3]; NAC 5 mM, Tiron 1 mM, 48 h): abrogated

Structure (SMILES): COC(=O)C[C@H](NC(=O)[C@H](C)NC(=O)[C@@H](NC(=O)OCc1ccccc1)C(C)C)C(=O)CF [z-VAD.fmk] (Cbz-Val-Ala-Asp(OMe)-CH2F)
- effect of z-VAD.fmk on cell death ([3]; z-VAD.fmk 50 μM): inhibited cell death
